Measurements: PubChem BioAssay (NCI)
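Values below derive from 48-hour exposures of cells grown in 96-well plates, with endpoints linearly interpolated between the two concentrations bracketing the appropriate inhibition level. Definition used: TGI = concentration required for complete inhibition of growth.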

Legend:
Experiment in all cases: inhibition of tumour cell growth, NCI panel, 48 h
BT-549 breast = test system: BT-549 breast
HS 578T breast = test system: HS 578T breast
KM12 colon = test system: KM12 colon
NCI-H460 lung = test system: NCI-H460 lung
OVCAR-4 ovarian = test system: OVCAR-4 ovarian
RPMI-8226 leukemia = test system: RPMI-8226 leukemia
SK-OV-3 ovarian = test system: SK-OV-3 ovarian

Row | SMILES | TGI (BT-549 breast) [µM] | TGI (HS 578T breast) [µM] | TGI (KM12 colon) [µM] | TGI (NCI-H460 lung) [µM] | TGI (OVCAR-4 ovarian) [µM] | TGI (RPMI-8226 leukemia) [µM] | TGI (SK-OV-3 ovarian) [µM]
1 | COc1ccc(C2CCc3c(cnc4nc(N)nc(N)c34)C2)cc1 (centres undefined) | > 100 | > 100 | > 100 | > 100 | > 100 | > 100 | 50.1
2 | CCOC(=O)CCN1C(=O)c2c(NC(=O)C(=O)O)cccc2S1(=O)=O | > 100 | > 100 | > 100 | > 100 | > 100 | > 100 | > 100
3 | COc1ccc2c(-c3csc(-c4c[nH]c5ccccc45)n3)c[nH]c2c1 | > 100 | > 78.7 | 14.8 | 13.7 | 69.8 | > 24.5 | 42.7
4 | O=C1CCc2c(sc3ncnc(Nc4cccc(Br)c4)c23)C1 | 13.9 | > 79.8 | 12.3 | 12.9 | 8.63 | > 20.3 | 20.1
5 | CCOC(=O)N1c2c(c3ccccc3n2C(=O)OCC)C(=O)C(OC)N1C(=O)OCC (centres undefined) | > 100 | 73.3 | 38.9 | > 100 | > 100 | > 100 | > 100
6 | Nc1nc(Cl)cc(NCC2CC(O)(CO)C2)n1 (centres undefined) | > 100 | > 100 | > 100 | > 100 | > 100 | > 100 | > 100
7 | CC1CN=C(N(C(=O)Nc2ccccc2)C2CCCCC2)S1 (centres undefined) | – | 50 | 36.3 | 33.9 | 30.2 | 49.7 | > 100
8 | O=c1[nH]c(=O)c2c([nH]1)[nH]c1ccccc12 | > 100 | > 100 | > 100 | – | > 100 | > 100 | > 100
9 | O=C(CSCC(=O)N/N=C\c1cccc(Br)c1)N/N=C\c1cccc(Br)c1 | 48.2 | 35.7 | 32.8 | 84.3 | 69.9 | – | 40.6
10 | N#Cc1c(NC(=S)Nc2ccccc2)sc2c1CCCC2 | > 100 | > 100 | > 100 | > 100 | > 100 | > 100 | –
11 | Clc1ccc(C2=NNC(c3cccc(Cl)c3)C2)cc1 (centres undefined) | – | > 100 | > 100 | > 100 | > 100 | 41 | 78.1
12 | c1ccc2c(c1)[C@@H]1O[C@@H]1[C@@]13O[C@@]21[C@H]1O[C@H]1c1ccccc13 | 30.3 | 28.3 | 29.2 | 74.9 | 26.8 | 33.7 | 52.2
13 | CC(=O)c1c2c(cc3c1CCC3)CCC2 | > 100 | > 100 | > 100 | > 100 | > 100 | > 100 | > 100
14 | O=C(OCC(OC(=O)c1ccccc1)C1CC(C(O)C2CCCCC2)C(=O)O1)c1ccccc1 (centres undefined) | > 100 | > 100 | > 100 | > 100 | > 100 | 78.9 | > 100
15 | S=C1NNC(=S)NN1 | > 1 | > 1 | > 1 | > 1 | > 1 | > 1 | > 1
16 | CN1C(=O)[C@](C)(Cc2ccc(F)cc2)N(C(=O)OC(C)(C)C)[C@@H]1C(C)(C)C | > 100 | – | > 100 | > 100 | > 100 | 49.4 | > 100
17 | Cc1cnc2cc(Cl)ccc2c1SCC(=O)O | > 100 | > 100 | > 100 | > 100 | > 100 | > 100 | –
18 | O=C(O)CCC(NC(=O)/C(=C/c1ccccc1)NC(=O)c1ccccc1)C(=O)O (centres undefined) | > 100 | > 100 | > 100 | > 100 | > 100 | > 100 | > 100
19 | Fc1sc2c(c1F)C1CCC2C1 (centres undefined) | – | 69.6 | > 100 | > 100 | > 100 | 87.1 | > 100
20 | Cc1cccc2c1C(=O)/C(=C/c1ccccc1C(=O)O)C2 | > 100 | > 100 | > 100 | > 100 | > 100 | > 100 | –
21 | [O-][n+]1cc(SCc2ccccc2)ncc1SCc1ccccc1 | > 10 | > 10 | > 10 | > 10 | > 10 | > 10 | > 10
22 | COc1ccc(OC)c([N+](=O)[O-])c1-c1nc2sc(C)cn2c1/C=N/N=C(N)N | 41.9 | 97.9 | 72.9 | > 100 | 47.3 | > 100 | –
23 | Cc1nc2cccc(F)c2c(=O)n1-c1nnc(C2CC2)s1 | – | > 10 | > 10 | > 10 | > 10 | > 10 | > 10

Row | SMILES | TGI (BT-549 breast) [µM] | TGI (HS 578T breast) [µM] | TGI (KM12 colon) [µM] | TGI (NCI-H460 lung) [µM] | TGI (OVCAR-4 ovarian) [µM] | TGI (RPMI-8226 leukemia) [µM] | TGI (SK-OV-3 ovarian) [µM]
24 | CCCCCC(=O)OCC1(CO)C/C(=C/CC(C(C)C)C(C)C)C(=O)O1 (centres undefined) | > 75 | > 75 | 37.4 | > 75 | > 75 | – | > 75
25 | CCOC(=O)c1sc2[n+](c1C)C(=O)/C(=C/c1ccccc1Cl)S2 | – | > 73.3 | 18.2 | 6.44 | > 100 | 15.7 | > 69.2
26 | O=C(N(C1=CCCC1)N(c1ccccc1)c1ccccc1)C(F)(F)F | 94.8 | – | 43.9 | 35.7 | > 100 | – | > 100
27 | NS(=O)(=O)c1ccc(NS(=O)(=O)c2ccc(NC(=O)N(c3ccccc3)c3ccccc3)cc2)cc1 | > 100 | > 100 | > 100 | > 100 | > 100 | 94.9 | –
28 | CC1CC2OC(=N)C1(C#N)C2(C#N)C#N (centres undefined) | – | > 100 | > 100 | – | – | 48 | > 100
29 | O=C(Nc1ccccc1C(=O)O)C(=Cc1ccccc1O)NC(=O)c1ccccc1 | > 100 | > 100 | > 100 | > 100 | – | > 100 | > 100
30 | c1ccc(C2C3=C(CCCC3)Nc3nnnn32)cc1 (centres undefined) | 98.4 | > 100 | > 100 | > 100 | – | – | > 100
31 | Cc1cc(=O)oc2c(CN(CCCl)CCCl)c(O)ccc12 | 78.5 | > 100 | > 100 | > 100 | > 100 | 63.6 | –
32 | CC(=O)O[C@H]1CC[C@]2(C=O)[C@H]3CC[C@]4(C)[C@@H](C5=CC(=O)OC5)CC[C@]4(O)[C@@H]3CC[C@]2(O)C1 | 0.575 | > 100 | – | 0.274 | 0.35 | 3.21 | 0.802
33 | Cc1cccc(-c2cc(=O)c3cc(C)cnc3[nH]2)c1 | > 58.3 | – | 16.4 | 13.1 | > 100 | 30.1 | > 29.6
34 | COC1OC2COC(c3ccccc3)OC2C(OC(=S)c2ccccc2)C1O (centres undefined) | > 100 | > 100 | – | > 100 | > 100 | > 100 | 58.2
35 | CC(=O)c1nc(C#N)c(N)o1 | – | > 100 | > 100 | > 100 | > 100 | > 100 | > 100
36 | CC(NC1=NCCO1)c1ccco1 (centres undefined) | – | > 100 | 90.2 | > 100 | > 100 | > 100 | > 100
37 | N#Cc1nc(C(=O)c2ccccc2)oc1N | – | > 100 | > 100 | – | > 100 | > 100 | > 100
38 | CC1CC/C(=C\c2ccc(F)cc2)C2=C1C(c1ccc(F)cc1)NC(=S)N2 (centres undefined) | > 100 | > 100 | > 100 | > 100 | – | > 100 | > 100
39 | Nc1nn2cc(-c3ccccc3)[n+](CC(=O)c3ccccc3)c2s1 | 40.5 | 43.6 | 47.1 | > 100 | – | 37.3 | > 100
40 | CC(C)c1cc(C(C)C)c(B(c2ccccc2)c2ccccc2)c(C(C)C)c1Br | > 100 | > 100 | > 100 | > 100 | > 100 | – | > 100
41 | N#CC(NNC(=O)c1c(Cl)c(Cl)c(Cl)c(Cl)c1-c1nc2ccc(C(=O)c3ccccc3)cc2[nH]1)c1cccc(Oc2ccccc2)c1 (centres undefined) | 64.8 | – | > 100 | – | > 100 | 91.8 | > 100
42 | Cn1c(-c2cccs2)cc(-c2ccsc2)c1-c1ccsc1 | > 100 | > 100 | > 100 | > 100 | > 100 | – | > 100
43 | COc1ccc(Cn2nc(OCc3ccccc3)c3cc([N+](=O)[O-])ccc32)cc1 | – | > 100 | > 100 | > 100 | – | > 100 | > 100
44 | C/C(=N\Nc1nc2ccccc2n1C)c1ccncn1 | > 100 | > 100 | 30.7 | > 100 | > 100 | – | > 100
45 | CC1C/C(=C\c2ccc(O)c(O)c2)C(=O)/C(=C/c2ccc(O)c(O)c2)C1 (centres undefined) | – | 24.9 | 20.9 | 32.2 | 34.1 | – | 53.1
